According to patent US12201632B2, “Levoketoconazole for treatment of congenital adrenal hyperplasia and primary aldosteronism” (Strongbridge Dublin Limited, priority 2018, dated 2025):

Tested on: HAC15 cells
Assay: Steroid profile by LC/MS-MS in HAC15 cells
Type: cell-based, Human
Details: 0.5 μM; for 11-DOC absolute change vs ACTH stimulation with vehicle / 11-DOC percentage change vs ACTH stimulation with vehicle / 17-OHP absolute change vs ACTH stimulation with vehicle / 17-OHP percentage change vs ACTH stimulation with vehicle / Androstenedione absolute change vs ACTH stimulation with vehicle / Androstenedione percentage change vs ACTH stimulation with vehicle / Corticosterone absolute change vs ACTH stimulation with vehicle / Corticosterone percentage change vs ACTH stimulation with vehicle / Cortisol absolute change vs ACTH stimulation with vehicle / Cortisol percentage change vs ACTH stimulation with vehicle / DHEA absolute change vs ACTH stimulation with vehicle / DHEA percentage change vs ACTH stimulation with vehicle / DHEAS absolute change vs ACTH stimulation with vehicle / DHEAS percentage change vs ACTH stimulation with vehicle / Prog absolute change vs ACTH stimulation with vehicle / Prog percentage change vs ACTH stimulation with vehicle / Testosterone absolute change vs ACTH stimulation with vehicle / Testosterone percentage change vs ACTH stimulation with vehicle / 11-DOC absolute change vs control / 11-DOC percentage change vs control / 17-OHP absolute change vs control / 17-OHP percentage change vs control / Androstenedione absolute change vs control / Androstenedione percentage change vs control / Corticosterone absolute change vs control / Corticosterone percentage change vs control / Cortisol absolute change vs control / Cortisol percentage change vs control / DHEA absolute change vs control / DHEA percentage change vs control / DHEAS absolute change vs control / DHEAS percentage change vs control / Prog absolute change vs control / Prog percentage change vs control / Testosterone absolute change vs control / Testosterone percentage change vs control: 3 days; for 11-DOC absolute change vs control / 11-DOC percentage change vs control / 17-OHP absolute change vs control / 17-OHP percentage change vs control / Androstenedione absolute change vs control / Androstenedione percentage change vs control / Corticosterone absolute change vs control / Corticosterone percentage change vs control / Cortisol absolute change vs control / Cortisol percentage change vs control / DHEA absolute change vs control / DHEA percentage change vs control / DHEAS absolute change vs control / DHEAS percentage change vs control / Prog absolute change vs control / Prog percentage change vs control / Testosterone absolute change vs control / Testosterone percentage change vs control: HAC15, Basal
Description: Human adrenocortical carcinoma HAC15 and mouse corticotroph AtT20 cells were used, purchased as a kind gift by Dr. W. Rainey, and obtained from Dr. J. Tooze (European Organization for Molecular Biology), respectively. Both cell lines were cultured in 75 cm^2 flasks at 37° C. in a humidified incubator (Greiner Bio-One, Alphen a/d Rijn, the Netherlands) at 5% CO2. Dulbecco's Modified Eagle Medium F12 containing 5% fetal calf serum was used for HAC15, whereas AtT20 cells were cultured in Dulbecco's minimal essential medium (DMEM) supplemented with 10% fetal calf serum. Both mediums were supplemented with L-glutamine (2 mmol/L) and penicillin (10^5 U/L). Short tandem repeat (str) profiling using a Powerplex Kit (Promega, Leiden, the Netherlands) of HAC15 and AtT20 gave results consistent with the ATCC database, confirming the identity of both cell lines. Medium and supplements were obtained from Invitrogen, Breda, the Netherlands. Once a week, cells were harvested with trypsin (0.05%)-EDTA (0.53 mM) and resuspended in culture medium. Levoketoconazole (COR-003) and racemic ketoconazole (both from Cortendo AB) were dissolved in absolute ethanol (EtOH), according to manufacturer's instructions, and stored at −20° C. at a stock concentration of […]. At the start of each experiment, both drugs were freshly prepared and diluted in EtOH in the correct concentrations. Synacten (synthetic ACTH, Novartis Pharma A.G.) stock concentration was stored at 4° C. and dissolved in culture medium at the day of use. The final concentrations of ACTH were chosen based on a dose-response curve in HAC15 cells and previously reported studies in the literature. For HAC15, 200,000 and 100,000 cells were plated in 0.5 ml medium in 24 well plates for experiments of 1 and 3 days, respectively. For AtT20, cell amounts were 100,000 and 30,000. One day after seeding the HAC15 cells, the medium was refreshed and cells were treated 1 or 3 days in quadruplicate with levoketoconazole or racemic ketoconazole (0.05-5 μM), with or without 10 nM ACTH. To study effects of both compounds on pituitary AtT20 cells, concentrations of 0.1 to 10 μM of both drugs were used. Controls were vehicle treated. […] Media were collected after 1 or 3 days of incubation and stored at −20° C. until analysis. All cell culture experiments were carried out at least twice.
Cortisol concentrations were measured in the supernatant using a chemiluminescence immunoassay system (Immulite 2000XPi; Siemens DPC Inc., Los Angeles, Calif., USA). In addition, we carried out multi-steroid analysis by liquid chromatography/mass spectrometry (LC/MS-MS) to accurately quantify androstenedione, corticosterone, cortisol, 11-deoxycortisol, DHEA, DHEAS, progesterone, 17-hydroxyprogesterone, and testosterone. Concentrations that were tested on the LC/MS-MS were closest to 50% inhibition or maximal inhibition of cortisol as determined by the immunoassay. Steroids were quantified with respect to a calibration series, with internal standards. Steroids were quantified on a Xevo TQS LC-MS/MS (Waters Chromatography).
Statistical analysis was performed using Graphpad Prism 6.0 (Graphpad Software, San Diego, CA). Non-linear regression curve fitting program was used to calculate the half maximal inhibitory concentrations (IC50) on cortisol production. Effects of both compounds on the steroid profile were measured as absolute change compared to control and compared using the Student's t-test. When assessing differences between effects of both compounds, the percentage change was evaluated and compared in order to correct for differences in the vehicle treated control cells. Values of P<0.05 were considered statistically significant and data are presented as mean SEM.

CC(=O)N1CCN(c2ccc(OCC3COC(Cn4ccnc4)(c4ccc(Cl)cc4Cl)O3)cc2)CC1 (racemic) [racemic ketoconazole, Ketoconazole]
total sum of decrease of steroids (HAC15, ACTH): −1,591 nmol/L
11-DOC absolute change vs ACTH stimulation with vehicle (HAC15, ACTH): -664.5 nmol/L
11-DOC percentage change vs ACTH stimulation with vehicle (HAC15, ACTH): (−22%****)
17-OHP absolute change vs ACTH stimulation with vehicle (HAC15, ACTH): -14.13 nmol/L
17-OHP percentage change vs ACTH stimulation with vehicle (HAC15, ACTH): (−29%***)
Androstenedione absolute change vs ACTH stimulation with vehicle (HAC15, ACTH): -661.4 nmol/L
Androstenedione percentage change vs ACTH stimulation with vehicle (HAC15, ACTH): (−40%*)
Corticosterone absolute change vs ACTH stimulation with vehicle (HAC15, ACTH): -0.0125 nmol/L
Corticosterone percentage change vs ACTH stimulation with vehicle (HAC15, ACTH): (−1.5%****)
Cortisol absolute change vs ACTH stimulation with vehicle (HAC15, ACTH): -15.15 nmol/L
Cortisol percentage change vs ACTH stimulation with vehicle (HAC15, ACTH): (−45%****)
DHEA absolute change vs ACTH stimulation with vehicle (HAC15, ACTH): -17.04 nmol/L
DHEA percentage change vs ACTH stimulation with vehicle (HAC15, ACTH): (−41%***)
DHEAS absolute change vs ACTH stimulation with vehicle (HAC15, ACTH): -197.4 nmol/L
DHEAS percentage change vs ACTH stimulation with vehicle (HAC15, ACTH): (−35%)
Prog absolute change vs ACTH stimulation with vehicle (HAC15, ACTH): -0.9625 nmol/L
Prog percentage change vs ACTH stimulation with vehicle (HAC15, ACTH): (−30%****)
Testosterone absolute change vs ACTH stimulation with vehicle (HAC15, ACTH): -20.29 nmol/L
Testosterone percentage change vs ACTH stimulation with vehicle (HAC15, ACTH): (−50%****)
11-DOC absolute change vs control: -521.2 nmol/L
11-DOC percentage change vs control: (−23%****)
17-OHP absolute change vs control: -16.50 nmol/L
17-OHP percentage change vs control: (−37%****)
Androstenedione absolute change vs control: -809.0 nmol/L
Androstenedione percentage change vs control: (−47%**)
Corticosterone absolute change vs control: +0.1750 nmol/l
Corticosterone percentage change vs control: (+19%****)
Cortisol absolute change vs control: -10.93 nmol/L
Cortisol percentage change vs control: (−47%****)
DHEA absolute change vs control: -39.50 nmol/L
DHEA percentage change vs control: (−56%**)
DHEAS absolute change vs control: -496.4 nmol/L
DHEAS percentage change vs control: (−44%*)
Prog absolute change vs control: -0.3125 nmol/L
Prog percentage change vs control: (−19%****)
Testosterone absolute change vs control: -25.78 nmol/L
Testosterone percentage change vs control: (−58%***)
total sum of decrease of steroids (HAC15, basal): −1,919 nmol/L

CC(=O)N1CCN(c2ccc(OC[C@@H]3CO[C@@](Cn4ccnc4)(c4ccc(Cl)cc4Cl)O3)cc2)CC1 (relative stereo) [levoketoconazole, 2S,4R cis-1-acetyl-4-[4-[[2-(2,4-dichlorophenyl)-2-(1H-imidazol-1-ylmethyl)-1,3-dioxolan-4-yl]methoxyl]phenyl]piperazine]
total sum of decrease of steroids (HAC15, ACTH): −2,811 nmol/L
11-DOC absolute change vs ACTH stimulation with vehicle (HAC15, ACTH): -1524 nmol/L
11-DOC percentage change vs ACTH stimulation with vehicle (HAC15, ACTH): −47%
17-OHP absolute change vs ACTH stimulation with vehicle (HAC15, ACTH): -24.73 nmol/L
17-OHP percentage change vs ACTH stimulation with vehicle (HAC15, ACTH): (−47%)
Androstenedione absolute change vs ACTH stimulation with vehicle (HAC15, ACTH): -943.7 nmol/L
Androstenedione percentage change vs ACTH stimulation with vehicle (HAC15, ACTH): (−52%)
Corticosterone absolute change vs ACTH stimulation with vehicle (HAC15, ACTH): -1.063 nmol/L
Corticosterone percentage change vs ACTH stimulation with vehicle (HAC15, ACTH): (−36%)
Cortisol absolute change vs ACTH stimulation with vehicle (HAC15, ACTH): -13.81 nmol/L
Cortisol percentage change vs ACTH stimulation with vehicle (HAC15, ACTH): −31%
DHEA absolute change vs ACTH stimulation with vehicle (HAC15, ACTH): -13.81 nmol/L
DHEA percentage change vs ACTH stimulation with vehicle (HAC15, ACTH): (−31%)
DHEAS absolute change vs ACTH stimulation with vehicle (HAC15, ACTH): -250.1 nmol/L
DHEAS percentage change vs ACTH stimulation with vehicle (HAC15, ACTH): (−43%)
Prog absolute change vs ACTH stimulation with vehicle (HAC15, ACTH): -2.163 nmol/L
Prog percentage change vs ACTH stimulation with vehicle (HAC15, ACTH): (−64%)
Testosterone absolute change vs ACTH stimulation with vehicle (HAC15, ACTH): -30.52 nmol/L
Testosterone percentage change vs ACTH stimulation with vehicle (HAC15, ACTH): (−71%)
11-DOC absolute change vs ACTH stimulation with vehicle (HAC15, ACTH, listed as LK): -1524 nmol/L
11-DOC percentage change vs ACTH stimulation with vehicle (HAC15, ACTH, listed as LK): (−47%)
Cortisol absolute change vs ACTH stimulation with vehicle (HAC15, ACTH, listed as LK): -21.80 nmol/L
Cortisol percentage change vs ACTH stimulation with vehicle (HAC15, ACTH, listed as LK): (−65%)
11-DOC absolute change vs control: -1129 nmol/L
11-DOC percentage change vs control: (−48%)
17-OHP absolute change vs control: -26.89 nmol/L
17-OHP percentage change vs control: (−57%)
Androstenedione absolute change vs control: -1105 nmol/L
Androstenedione percentage change vs control: (−56%)
Corticosterone absolute change vs control: -0.2938 nmol/L
Corticosterone percentage change vs control: (−39%)
Cortisol absolute change vs control: -16.36 nmol/L
Cortisol percentage change vs control: (−69%)
DHEA absolute change vs control: -31.04 nmol/L
DHEA percentage change vs control: (−44%)
DHEAS absolute change vs control: -658.6 nmol/L
DHEAS percentage change vs control: (−56%)
Prog absolute change vs control: -0.9125 nmol/L
Prog percentage change vs control: (−55%)
Testosterone absolute change vs control: -39.19 nmol/L
Testosterone percentage change vs control: (−64%)
total sum of decrease of steroids (HAC15, basal): −3,007 nmol/L
